Test results as given in article PMC4502414, “Transforming berberine into its intestine-absorbable form by the gut microbiota” (Scientific Reports, 2015).

Legend:
[1] = molecular target: T1, monoamine oxidase-B (MAO-B) (Homo sapiens, UniProt P27338); settings: cell-free system, dhBBR 100 μM, 30 min
T1 sequence (P27338 1-520): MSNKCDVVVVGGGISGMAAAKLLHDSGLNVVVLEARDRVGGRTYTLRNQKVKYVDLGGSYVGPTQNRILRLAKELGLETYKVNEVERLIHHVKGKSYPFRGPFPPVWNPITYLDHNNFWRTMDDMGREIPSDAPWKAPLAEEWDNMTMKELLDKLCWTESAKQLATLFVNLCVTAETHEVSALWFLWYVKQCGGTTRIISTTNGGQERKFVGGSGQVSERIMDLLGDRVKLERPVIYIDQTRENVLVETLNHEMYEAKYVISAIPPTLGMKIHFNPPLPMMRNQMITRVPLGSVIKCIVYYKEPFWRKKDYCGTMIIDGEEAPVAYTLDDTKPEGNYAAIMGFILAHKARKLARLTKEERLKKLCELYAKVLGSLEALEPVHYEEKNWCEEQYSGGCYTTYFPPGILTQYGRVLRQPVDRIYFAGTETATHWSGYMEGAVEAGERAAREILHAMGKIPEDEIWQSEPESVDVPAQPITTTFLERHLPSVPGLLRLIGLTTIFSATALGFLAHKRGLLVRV
Experimental: (§1) The reaction system consisted of dhBBR (100 μM), MAO-B (0.2 mg/ml) and phosphate-buffered saline (PBS, pH = 7.4) in a final volume of 200 μl. The MAO-B was pre-incubated via centrifugation at 850 rpm at 37 °C for 5 min, and this step was followed by the addition of dhBBR. The reaction was terminated after 30 min by adding an equal volume of ice-cold acetonitrile and centrifuging at 14,000 g for 5 min. Ten microliters of the supernatant was injected into the HPLC instrument for analysis.

[2] = dhBBR-to-BBR reversion in rat small intestine homogenate; type: in vitro ADME; settings: 10-min incubation
Experimental: The rat duodenum, jejunum and ileum were collected separately, washed thoroughly with saline and dried. After being weighed, the tissues were homogenized with saline at a ratio of 1: 2 [w (g) /v (ml)]. DhBBR was dissolved in a mixture of methanol and DMSO at a ratio of 1:1 with a final concentration of 5 mg/ml. Ten microliters of dhBBR (5 mg/ml) was mixed with 1 ml of the homogenates. The samples were then centrifuged at 14,000 g for 5 min, and the supernatants were collected and mixed with an equal volume of ice-cold acetonitrile to terminate the reaction. The samples were centrifuged at 14,000 g for 5 min, and the supernatant was used for the HPLC analysis.

[3] = Distribution of dhBBR in organs of SD rats orally treated with BBR; type: in vivo; settings: 24 h after oral BBR 200 mg/kg
Experimental: Three segments of small intestine (duodenum, jejunum and ileum) were collected 0, 6, 12, 24, 36, and 48 h after the oral administration of BBR in SD rats. The small intestine tissues were washed thoroughly with saline and dried. After being weighed, the samples were homogenized with mixed solution (ethanol: water, 1:1) at a ratio of 1:2 [w(g)/v(ml)]. The samples were centrifuged at 7,500 g for 10 min, and the supernatant was collected and evaporated to dryness in a water bath at 40 °C using a rotary evaporator. The residues of the tissue extraction were dissolved in methanol (250 μl) and vortex-mixed for 5 min. The tissue solution was then centrifuged (at 14,000 g for 5 min), and the supernatant was passed through a 0.22-μm filter. An aliquot of 1 μl of the supernatant was injected into the GC-MS instrument, and a 10-μl aliquot was used for LC-MS/MS analysis. The level of dhBBR was calculated based on the standard curve, and BBR and other metabolites was quantified using the method described above.

nitroreductase = molecular target: T2, nitroreductase (Escherichia coli, UniProt P38489); assay: Nitroreductase-mediated BBR reduction, cell-free incubation; type: biochemical; settings: BBR with nitroreductase, 37 °C
T2 construct: purchased Sigma-Aldrich Co. (Shanghai, China); host or cells: Escherichia coli
Experimental: BBR was incubated with nitroreductase in intestinal bacteria cultures. The reaction mixture consisted of BBR (50 μg/ml), an NADPH-regenerating system and nitroreductase (5 μg/ml) in a final volume of 1 ml under the protection of N2. After incubation for 0, 2, 4, 6 and 12 h at 37 °C, the reaction was terminated by the addition of 1 ml of ice-cold acetonitrile. The samples were then extracted with 1 ml of ethyl acetate after adding 1 ml of 0.5 M sodium hydroxide solution. The organic phase was evaporated to dryness under a nitrogen flow in a water bath at 40 °C. The residue was dissolved with 200 μl of the mobile phase for further analysis. 2-Iodosobenzoic acid (2-IBA), a specific inhibitor of nitroreductase, was used to verify the role of bacterial nitroreductase.

17 intestinal bacteria = assay: Anti-bacterial test (MIC, broth microdilution); type: cell-based; settings: 17 intestinal bacteria strains, 24 h
Experimental: Seventeen bacterial strains (see above) were used in the susceptibility test for BBR and dhBBR. The bacterial strains, which belong to different species of bacteria, were collected and identified as described above. The minimum inhibitory concentrations (MICs) of BBR and dhBBR after 24 h were determined through the broth microdilution method according to the CLSI guidelines. BBR and dhBBR were tested at a concentration range of 8 to 512 μg/ml. The MIC was defined as the lowest concentration of an agent that prevents turbidity. The experiment was repeated three times. All of the bacterial strains tested in this study (S. aureus ATCC 29213, E. faecalis ATCC 29212, E. coli ATCC 25922, S. aureus 08-43, S. epidermidis 12-12, E. faecium 13-01, E. faecalis 13-01, E. coli 06-05, K. pneumoniae 13-14, Ps. aeruginosa 13-10, A. baumannii 13-02, E. cloacae 13-12, and P. mirabilis 13-01) were facultative anaerobes, of which S. aureus ATCC 29213, E. faecalis ATCC 29212 and E. coli ATCC 25922 were standard strains from ATCC (USA) and served as quality controls. L. casei ATCC 334, L. acidophilus ATCC 4356, B. longum ATCC 15707, and B. breve ATCC 15700 were also tested in this anti-bacterial experiment. Ampicillin was used as the positive control.

MAO-B = molecular target: T3, MAO-B (Rattus norvegicus, UniProt P19643); settings: intestinal homogenate, 30 min, no inhibitor
T3 sequence (P19643 1-520): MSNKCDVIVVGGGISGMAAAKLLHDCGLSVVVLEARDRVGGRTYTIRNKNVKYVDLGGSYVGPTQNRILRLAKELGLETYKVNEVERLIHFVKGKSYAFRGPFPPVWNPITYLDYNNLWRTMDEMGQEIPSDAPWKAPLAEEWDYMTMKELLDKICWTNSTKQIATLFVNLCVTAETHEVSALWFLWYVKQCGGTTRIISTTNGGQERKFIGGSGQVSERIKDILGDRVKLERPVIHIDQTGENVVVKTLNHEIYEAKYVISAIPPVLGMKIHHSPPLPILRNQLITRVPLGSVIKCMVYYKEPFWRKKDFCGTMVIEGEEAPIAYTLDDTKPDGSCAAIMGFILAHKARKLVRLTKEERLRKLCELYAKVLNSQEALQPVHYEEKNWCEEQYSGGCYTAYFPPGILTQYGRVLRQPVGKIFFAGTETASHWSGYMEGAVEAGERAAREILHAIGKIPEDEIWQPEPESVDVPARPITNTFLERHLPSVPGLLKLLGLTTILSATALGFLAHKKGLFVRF
Experimental: as §1

T2 sequence (P38489 whole entry): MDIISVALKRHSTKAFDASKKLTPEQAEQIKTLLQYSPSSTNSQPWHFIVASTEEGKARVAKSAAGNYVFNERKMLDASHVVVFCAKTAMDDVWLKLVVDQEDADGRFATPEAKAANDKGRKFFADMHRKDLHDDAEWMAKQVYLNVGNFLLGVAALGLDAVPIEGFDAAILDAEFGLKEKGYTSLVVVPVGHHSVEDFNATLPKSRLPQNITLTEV

For `COc1ccc2c(c1OC)CN1CCc3cc4c(cc3C1=C2)OCO4` [dhBBR, dihydroberberine], which “reversion from dhBBR to BBR attributable to MAO-B” value [1] is on record?
Its value is “approximately 10%”.

What about the dhBBR-to-BBR reversion ([2]; duodenum and jejunum homogenate) of the same compound?
The dhBBR-to-BBR reversion was “almost completely”.

And the dhBBR-to-BBR reversion rate ([2]; ileum homogenate)?
Its dhBBR-to-BBR reversion rate is “more than 80%”.

And the “organs in which dhBBR was detected” value [3]?
Its value is “detected in intestinal tissue only”.

What about the “incubation time after which dhBBR became detectable” value (nitroreductase) of the same compound?
The value was 4 h.

And the “antibacterial effect compared with BBR” value (17 intestinal bacteria)?
Its value is “even weaker than that of BBR in 5 of the 17 intestinal bacteria strains”.

And the dhBBR-to-BBR reversion (MAO-B)?
Its dhBBR-to-BBR reversion is “complete”.
